Test [1] can be described thus: Cardiac stimulant activity in man. Type of test: in vivo, homme. The following applies: no method or data given.
Test [2] deals with Rat amyélé. The experiment in a line: Partial β-agonist activity in vivo: heart rate increase in the pithed rat after cumulative i.v. doses. As to conditions: for ED (50 beats per minute increase): iv, dose giving a heart rate increase of 50 beats per minute, pithed rat, i.v., read-out: DE₅₀; for augmentation maximale de fréquence cardiaque (effet agoniste partiel): pithed anaesthetised rat, cumulative i.v. doses. The method, then:
2. Propriétés β-agonistes partielles des isomères (S)(-) et (R)(+) du cicloprolol.
L'activité β-agoniste partielle des deux énantiomères du cicloprolol, a été étudiée in vivo chez le Rat amyélé. Des rats (Spraque-Dawley; Charles River, France) mâles de 250 g environ sont anesthésiés au pentobarbital sodique (55 mg/kg i.p.), amyélés puis placés sous respiration artificielle. La pression artérielle est captée par voie sanglante au niveau de la carotide et l'onde pulsatile alimente un tachographe gui permet de mesurer la fréquence cardiaque. Les composés sont injectés par voie intraveineuse au niveau de la veine fémorale. Ces rats amyélés présentent une fréquence cardiaque réduite d'environ 30 % par rapport à celle de rats intacts anesthésiés. L'activité agoniste partielle des énantiomères est déterminée par l'injection de doses cumulatives des énantiomères. On détermine la dose permettant une augmentation de la fréquence cardiaque de 50 battements par minute (DE₅₀) ainsi que le maximum de l'effet.

The target of test [3] is T1, récepteurs β₁ adrénergiques (Cavia porcellus, UniProt H0W3H1).
T1 construct: L'oreillette droite est séparée du coeur; from tissue; host or cells: isolated right atrium of male guinea pigs
The experiment in a line: Blockade of β1 adrenergic receptors in vitro: isoprenaline concentration-effect curves on atrial rate of isolated right atria (Schild analysis). Type of test: cell-based, cobaye. As to conditions: for déplacement des courbes concentration-effet à l'isoprénaline: R(+) at 0,3, 1, 3 µM, S(-) at 0,1, 0,3, 1 µM, 30 min before the second curve; for Kb: Schild method, antagonism of isoprenaline on atrial rate, isolated guinea pig right atrium, 32°C, confidence interval in brackets, read-out: pA₂ (converted). From the text:
1. Efficacité des isomères (S)(-) et (R)(+) du cicloprolol en tant que bloquants des récepteurs β₁ adrénergiques dans des conditions in vitro.
Préparation des oreillettes droites.
Des cobayes mâles (race tricolore : élevage LESSIEUX) pesant 200-250 g sont sacrifiés par dislocation cervicale. Les coeurs sont rapidement retirés de la cage thoracique et placés dans une solution de Krebs dans laquelle barbote un mélange de 95 % de O₂ et 5 % de CO₂. La composition de cette solution en mM est : NaCl 118; KCl 4,7; CaCl₂ 2,6; KH₂PO₄ 1,2; MgCl₂ 1,2; NaHCO₃ 25; glucose 11,7; acide ascorbique 1,0. L'oreillette droite est séparée du coeur. Sa base est attachée à un crochet monté sur un support et son apex à un autre petit crochet auquel un fil est accroché. La préparation est transférée dans un bain à organe contenant 20 ml de solution de Krebs oxygénée à 32°C et le fil est connecté à un transducteur de force (Grass, modèle : FTO3C). Une tension de repos de 0,5 g est appliquée à l'oreillette et les signaux de force contractile servent à déclencher un cardiotachomètre pour mesurer le rythme atrial. La force contractile et le rythme atrial sont enregistrés sur un polygraphe.
Après une période de stabilisation de 50 minutes, le tissu est soumis à une concentration de 0,01 µM d'isoprénaline puis est lavé à plusieurs reprises pendant 20 minutes. Immédiatement après, la courbe concentration-effet complète est déterminée en additionnant au bain des concentrations de plus en plus fortes d'isoprénaline (demi-intervalles de l'échelle logarithmique) jusqu'à ce que le rythme atrial ne puisse plus augmenter davantage. Chaque concentration successive d'isoprénaline est ajoutée quand la réponse à la concentration précédente atteint un état stable apparent. A la fin de cette courbe concentration-effet, la préparation est lavée toutes les 10 minutes, pendant 30 minutes, pour lui laisser retrouver son rythme de battement minimal. Puis, une deuxième courbe de réponse aux concentrations est effectuée 30 minutes après avoir soumis la préparation aux différentes concentrations de R(+)-cicloprolol (0,3; 1; et 3 µM) ou de S(-)-cicloprolol (0,1; 0,3 et 1 µM). Les modifications maximales du rythme atrial engendrées par chaque concentration d'isoprénaline sont exprimées en pourcentage par rapport à la réponse émise lors d'une concentration supramaximale d'isoprénaline. Ces valeurs sont utilisées pour construire la courbe concentration-effet dans un repère semi-logarithmique. Il faut noter que si le rythme initial au début de la seconde courbe concentration-effet diffère de celle de la 1ère courbe, la réponse maximale utilisée pour calculer les pourcentages est déterminée par la différence entre le rythme initial de l'oreillette avant l'initiation de la seconde courbe concentration-effet et le rythme atteint par l'oreillette après l'addition de la plus grande concentration d'isoprénaline lors de la première courbe de réponse.
Le logarithme changé de signe de la concentration d'isoprénaline produisant 50 % de l'effet maximal (pD₂) est calculé pour chaque courbe de réponse avant et après chaque concentration de S(-) ou de R(+)-cicloprolol. Les valeurs logarithmiques (concentration ratio-1) sont portées sur l'ordonnée en fonction du logarithme négatif de la concentration d'antagoniste. (Arunlakshana et Schild, Br. J. Pharmacol. 14, 48-54, 1959). […]

The source of these data is patent EP0498705A1, “Phenol ethers derivatives, their preparation and their therapeutical use” (SYNTHELABO, priority 1991, dated 1992).

T1 sequence (H0W3H1 1-470): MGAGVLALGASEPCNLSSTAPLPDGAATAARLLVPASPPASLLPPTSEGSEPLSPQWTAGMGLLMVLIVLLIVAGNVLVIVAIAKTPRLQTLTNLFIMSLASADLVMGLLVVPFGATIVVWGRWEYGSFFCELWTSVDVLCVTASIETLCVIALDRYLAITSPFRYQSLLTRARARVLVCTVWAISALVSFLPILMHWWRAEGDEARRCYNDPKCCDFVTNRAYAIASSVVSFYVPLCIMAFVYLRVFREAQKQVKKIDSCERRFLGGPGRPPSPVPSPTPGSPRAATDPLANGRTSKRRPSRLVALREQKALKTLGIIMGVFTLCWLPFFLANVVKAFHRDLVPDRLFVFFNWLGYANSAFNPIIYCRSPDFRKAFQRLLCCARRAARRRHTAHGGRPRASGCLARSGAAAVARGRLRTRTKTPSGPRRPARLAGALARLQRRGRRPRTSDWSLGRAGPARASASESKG

For `CC(C)NCC(O)COc1ccc(OCCOCC2CC2)cc1` (stereo not drawn) [cicloprolol, 1-[4-[2-(cyclopropylméthoxy)éthoxy]phénoxy]-3-[(1-méthyléthyl)amino]propan-2-ol], the activité stimulante cardiaque result in test [1] is on record as “a été confirmée chez l'homme”.
In the case of `CC(C)NCC(O)c1ccc(O)c(O)c1` (stereo not drawn) [isoprénaline, reference compound], in test [2], the ED (50 beats per minute increase) was found to be 0.02 µg/kg and the “augmentation maximale de fréquence cardiaque (effet agoniste partiel)” value is approximately 140 bat/min.
For the molecule `CC(C)NC[C@H](O)COc1ccc(OCCOCC2CC2)cc1` [(S)(-)-cicloprolol, (S)-(-)-1-[4-[2-(cyclopropylméthoxy)éthoxy]phénoxy]-3-[(1-méthyléthyl)amino]propan-2-ol], in test [2], the ED (50 beats per minute increase) worked out at 4.6 ± 0.1 µg/kg and the “augmentation maximale de fréquence cardiaque (effet agoniste partiel)” value is listed as 107 ± 3 bat/min. Further, in test [3], the “déplacement des courbes concentration-effet à l'isoprénaline” value is recorded as “déplacent vers la droite les courbes concentration-effet à l'isoprénaline de façon parallèle et sans changer la réponse maximale” and the Kb is 36.3 nM. In addition, the “fois plus puissant que le (R)(+)-cicloprolol, comme antagoniste des récepteurs β₁ adrénergiques” value in test [3] (antilog(7,44 - 6,62), ratio of the pA₂ values) was 6,6 fois.
On to `CC(C)NC[C@@H](O)COc1ccc(OCCOCC2CC2)cc1` [(R)(+)-cicloprolol, (R)-(+)-1-[4-[2(cyclopropylméthoxy)éthoxy]phénoxy]-3-[(1-méthyléthyl)amino]propan-2-ol], for which, in test [2], the ED (50 beats per minute increase) was 122 ± 2 µg/kg and the “augmentation maximale de fréquence cardiaque (effet agoniste partiel)” value is on record as 113 ± 5 bat/min. Also, in test [3], the “déplacement des courbes concentration-effet à l'isoprénaline” value was “déplacent vers la droite les courbes concentration-effet à l'isoprénaline de façon parallèle et sans changer la réponse maximale” and the Kb is 240 nM.
